For the experiment, the system named is PI3K. In words: IGF-1-stimulated phospho-AKT Ser473 in MCF7 cells, Western blot. Particulars: up to 10 μM, 50 ng/mL IGF-1, 30 min. It counts as cell-based, Human. The method, then: Exponentially growing MCF7 cells were exposed to a range of concentrations of NU5455 and NU7441 (0.03–10 μM) for 1 hour. To assess the ability of NU5455 and NU7441 to inhibit autophosphorylation of DNA-PKcs at Ser2056, cells were treated with 10 Gy irradiation and incubated for 30 minutes. Alternatively, to investigate the effects of NU5455 and NU7441 against PI3K-dependent phosphorylation of AKT at Ser473, cells were treated with 50 ng/mL insulin-like growth factor-1 (IGF-1; Invitrogen) for 30 minutes. Cell lysates were prepared for the detection of p–DNA-PKcs Ser2056 and total DNA-PKcs, or p–AKT Ser473 and total AKT, respectively, using Western blotting. […]
Protein lysates were quantified using the Pierce BCA Protein Assay (ThermoFisher). […]
Membranes were then washed in TBST and incubated with HRP-conjugated goat anti-mouse or anti-rabbit antibodies (P0447 and P0448 respectively, Dako) in 5% (w/v) milk/TBST at room temperature for 1-2 hours. Conjugates were detected using Clarity Western ECL Substrate (BioRad) and chemiluminescence imaged using the Fuji LAS-3000 Luminescent Image Analyzer System (Fujifilm). […]
Alternatively, basal pAKT Ser473 levels were subtracted from all other pAKT bands, and pAKT band intensity calculated relative to total AKT expression and given as a percentage relative to IGF-1 stimulated, DMSO-treated cells. […]

On to `CN(C(=O)CN1CCOCC1)c1ccc2sc3c(-c4cccc5c(=O)cc(N6CC7CCC(C6)O7)oc45)cccc3c2c1` [NU5455], for which the “inhibition of IGF-stimulated activation of AKT” value is “did not inhibit”.
